Test results published in patent publication US20120093809A1, “USE OF ALKANOYL L-CARNITINE IN COMBINATION WITH CHEMOTHERAPEUTIC AGENTS FOR THE TREATMENT OF NEOPLASMS” (priority 2008, published 2012).

Legend:
[1] = system: NCI-H460 NSCLC; assay: Antitumor activity of cisplatin in combination with acetyl L-carnitine, s.c. xenograft; assay type: in vivo; details: cisplatin ip q3-4dx5, alone or with acetyl L-carnitine 200 mg/kg p.o. qdx5/wx4w
Description: (§1) Treatments started three days after tumor injection.
Mice were subdivided (12 mice/group) in the following experimental groups:
Acetyl L-carnitine was administered immediately before the drug given in combination.
(§2) To evaluate the antitumor activity, tumor diameters were measured with a Vernier caliper.
(§3) When tumors reached a volume of 1-2 cm^3, mice were sacrificed by cervical dislocation. Body weight recording was carried out through the study and mortality was noted.

[2] = system: NCI-H460 non-small cell lung carcinoma; assay: Antitumor activity of cisplatin in combination with L-carnitine, s.c. xenograft; assay type: in vivo; details: cisplatin 4 mg/kg ip, alone or with L-carnitine 200 mg/kg po
Description: as §1, §2, §3

[3] = system: A549 non-small cell lung carcinoma; assay: Antitumor activity of acetyl L-carnitine in combination with cisplatin, s.c. xenograft; assay type: in vivo
Description: Treatments started six days after cancer injection.
(§4) When tumors reached a volume of about 1 cm3, mice were sacrificed by cervical dislocation.
(§5) Body weight recording was carried out through the study.

[4] = system: NCI-H1650 non-small cell lung carcinoma; assay: as above; assay type: in vivo
Description: Treatments started eleven days after cancer injection.
as §4, §5

[5] = system: IGROV-1 ovarian carcinoma; assay type: in vivo, CD1 nude mice; details: day +41; cisplatin 4 mg/kg ip, alone or with acetyl L-carnitine 200 mg/kg po
Description: (§6) Treatments started three days after cancer injection.
When tumors reached a volume of about 1-2 cm^3, mice were sacrificed by cervical dislocation.
as §5

[6] = system: A2780/Dx multidrug-resistant ovarian carcinoma cells; assay: Antiproliferative activity of cisplatin with and without acetyl L-carnitine, MTT assay; assay type: cell-based; details: acetyl L-carnitine 10 mM where combined, 6 days of exposure, 0.1% FBS
Description: (§7) Moreover, the activity was also evaluated on two prostate tumor cell lines with p53 wild-type (LnCaP) or p53 null (PC3). […] The number of surviving cells was finally determined by the tetrazolium salt (MTT) assay, as described by Hansen M B et al. (Re-examination and further development of a precise and rapid dye method for measuring cell growth/cell kill. J. Immunol. Methods 119: 203-10, 1989). […] In this case the statistical comparison was performed by Mann-Whitney test.
(§8) To test the effects of the compounds on cell growth, tumor cells were seeded in 96-well tissue culture plates at approximately 10% confluence and were allowed to attach and recover for at least 24 h. […] Plates were kept at. 37° C. in incubator with 5% CO2 for 2 h for the formation of blu chrystals. The supernatant was removed and 100 μL/well of lysant medium were added. Plates were kept under stirring for 60 min. The survival cell was determined as optical density by a Multiskan spectrofluorimeter at 570 nm.

[7] = system: NCI-H460 non-small cell lung carcinoma cells; assay: as above; assay type: cell-based; details: acetyl L-carnitine 10 mM where combined, 72H of exposure, 0.1% FBS
Description: as §7, §8

[8] = system: LnCaP prostate carcinoma cells (p53 wild-type); assay: as above; assay type: cell-based; details: acetyl L-carnitine 10 mM where combined, 6 days of exposure, 0.1% FBS
Description: as §7
(§9) To test the effects of the compounds on cell growth, tumor cells were seeded in 96-well tissue culture plates at approximately 10% confluence and were allowed to attach and recover for at least 24 h. Tumor cells were exposed to compounds for 72 h or 6 days in 0.1% FBS at 37° C., then medium culture was removed and 100 μL/well of medium were added containing 25 μL/well of a solution 5 mg/mL MTT (final 1 mg/mL). Plates were kept at. 37° C. in incubator with 5% CO2 for 2 h for the formation of blu chrystals. The supernatant was removed and 100 μL/well of lysant medium were added. Plates were kept under stirring for 60 min. The survival cell was determined as optical density by a Multiskan spectrofluorimeter at 570 nm.

[9] = system: NCI-H1650 non-small cell lung carcinoma cells; assay: as above; assay type: cell-based; details: acetyl L-carnitine 10 mM where combined, 6 days of exposure, 0.1% FBS
Description: as §7, §9

[10] = system: PC3 prostate carcinoma cells (p53 null); assay: as above; assay type: cell-based; details: acetyl L-carnitine 10 mM where combined, 72 h of exposure, 0.1% FBS
Description: as §7, §9

[11] = system: SJSA-1 (with amplification of mdm2) osteosarcoma cells; assay: as above; assay type: cell-based; details: acetyl L-carnitine 10 mM where combined, 72 h of exposure followed by 72 h of recovery, 0.1% FBS
Description: as §7, §9

[12] = system: SW620 colon carcinoma with mutant p53; assay type: in vivo, CD1 nude mice; details: day +20; cisplatin 4 mg/kg ip, alone or with acetyl L-carnitine 200 mg/kg po
Description: as §6
When tumors reached a volume of about 1 cm^3, mice were sacrificed by cervical dislocation.
as §5

[13] = system: lung metastases; details: cisplatin alone, 6 to 8 mg/kg; cited from earlier work
[14] = cisplatin 4 mg/kg ip, alone or with acetyl L-carnitine 200 mg/kg po
[15] = day +41, cisplatin 4 mg/kg ip, alone or with acetyl L-carnitine 200 mg/kg po

## N.N.[Cl][Pt][Cl] [Cisplatin]
[1]; DT = 2.6 days
  LCK (1 cm^3): 0.6
[1]; day +31
  TVI % +31: 41%
[2]; day +32
  TV ± SE +32: 345 ± 90 mm^3
[2]; dead/total mice
  Leth.: 0/9
[3]; cisplatin 4 mg/kg ip q3-4d/wx3w, alone or with acetyl L-carnitine 200 mg/kg po qdx5/wx4w
  BWL % max: 8%
[3]; [14]
  TV ± SE: 208 ± 55 mm^3
  TVI % ± SE: 49 ± 12%
[4]; cisplatin 4 mg/kg ip q3-4d/wx3w, alone or with acetyl L-carnitine 200 mg/kg po qdx5/wx5w
  BWL % max: 10%
[4]; [15]
  TV ± SE +41: 206 ± 32 mm^3
  TVI % ± SE +41: 23 ± 4%
[5]
  TV ± SE +41: 231 ± 55 mm^3
  TVI % ± SE +41: 35 ± 8%
[6]; IC50±SD of cisplatin
  IC50: 0.73 µM
[6]; cisplatin 625 nM
  CELL SURVIVAL % ± SE: 62 ± 2.0%
[6]; cisplatin 1250 nM
  CELL SURVIVAL % ± SE: 40 ± 1.0%
[6]; cisplatin 2500 nM
  CELL SURVIVAL % ± SE: 31 ± 1.0%
[6]; cisplatin […]
  CELL SURVIVAL % ± SE: 86 ± 2.0%
[7]; IC50±SD of cisplatin
  IC50: 0.4 µM
[7]; cisplatin 39 nM
  CELL SURVIVAL % ± SE: 96 ± 2.4%
[7]; cisplatin 78 nM
  CELL SURVIVAL % ± SE: 93 ± 4.0%
[7]; cisplatin 312 nM
  CELL SURVIVAL % ± SE: 61 ± 2.0%
[7]; cisplatin 625 nM
  CELL SURVIVAL % ± SE: 39 ± 1.0%
[7]; cisplatin 1250 nM
  CELL SURVIVAL % ± SE: 24 ± 0.7%
[7]; cisplatin […]
  CELL SURVIVAL % ± SE: 82 ± 2.0%
[8]; IC50±SD of cisplatin
  IC50: 7.8 µM
[8]; cisplatin 1250 nM
  CELL SURVIVAL % ± SE: 92 ± 2%
[8]; cisplatin 2500 nM
  CELL SURVIVAL % ± SE: 74 ± 5%
[8]; cisplatin 5000 nM
  CELL SURVIVAL % ± SE: 67 ± 2%
[8]; cisplatin 10000 nM
  CELL SURVIVAL % ± SE: 51 ± 3%
[9]; IC50±SD of cisplatin
  IC50: 1.5 µM
[9]; cisplatin 78 nM
  CELL SURVIVAL % ± SE: 98 ± 4.0%
[9]; cisplatin 312 nM
  CELL SURVIVAL % ± SE: 92 ± 2.0%
[9]; cisplatin 625 nM
  CELL SURVIVAL % ± SE: 81 ± 3.0%
[9]; cisplatin […]
  CELL SURVIVAL % ± SE: 95 ± 1.0%
[10]; IC50±SD of cisplatin
  IC50: 4.63 µM
[10]; cisplatin 625 nM
  CELL SURVIVAL % ± SE: 97%
[10]; cisplatin 1250 nM
  CELL SURVIVAL % ± SE: 89%
[10]; cisplatin 2500 nM
  CELL SURVIVAL % ± SE: 76%
[10]; cisplatin 5000 nM
  CELL SURVIVAL % ± SE: 52%
[10]; cisplatin 10000 nM
  CELL SURVIVAL % ± SE: 26%
[11]; IC50±SD of cisplatin
  IC50: 3.2 µM
[11]; cisplatin 312 nM
  CELL SURVIVAL % ± SE: 100 ± 3.0%
[11]; cisplatin 625 nM
  CELL SURVIVAL % ± SE: 90 ± 6.0%
[11]; cisplatin 1250 nM
  CELL SURVIVAL % ± SE: 90 ± 2.0%
[11]; cisplatin 2500 nM
  CELL SURVIVAL % ± SE: 64 ± 2.0%
[11]; cisplatin 5000 nM
  CELL SURVIVAL % ± SE: 35 ± 1.0%
[12]
  TV ± SE +20: 244 ± 45 mm^3
  TVI % ± SE +20: 55 ± 10%
[13]
  number of lung metastases: significantly reduced the number of lung metastases
